In paper PMC8333053, “Synthesis and biological screening of new thiadiazolopyrimidine-based polycyclic compounds” (Scientific Reports, 2021):
Converted amounts (≈) assume the structure as drawn.

Experiments:
DNA = assay: Bleomycin-dependent DNA damage; assay type: biochemical; settings: test sample 0.1 mg/mL, λ = 532 nm; mean of three replicates ± SD; ascorbic acid 0.24 mM
Description: Bleomycin-dependent DNA damage. The prepared polycyclic thiadiazolopyrimidine-based compounds were examined through the bleomycin-dependant DNA damage, and the results were compared to that of ascorbic acid as a positive control. The obtained data reflected the ability of these derivatives to protect the DNA from damage. The capability of compounds 16a–b and 17a–b to manifest the best protective effect against DNA damage was indicated by the corresponding absorbance values ranging from 0.031 to 0.053 (Table 4)[35],[36].
Bleomycin-dependent DNA damage experiment: To a mixture of 0.5 mg / mL of DNA, 5 mM magnesium chloride, 50 mM ferric chloride and 0.05 mg / mL bleomycin sulfate was prepared. The test sample was prepared at a concentration of 0.1 mg / mL and added to the mixture. After incubation of the mixture for one hour at 37 °C, 0.05 mL of EDTA (0.1 M) was added to terminate the reaction. In the next step, 0.5 mL of TBA (1% w / v) and 0.5 mL of HCl (25% v / v) were added for colour development and the mixture was heated for 10 minutes at 80 °C. The mixture was centrifuged and the absorbance expressed, the amount of damage to the DNA was measured at λ = 532 nm. L-Ascorbic acid (0.24 mM) was used as a positive control.

[1] = MTT cytotoxicity assay on normal cells; assay type: cell-based; settings: human, WI38 normal fibroblast cells
Experimental: (§1) The cytotoxicity of the prepared tri-and tetra-cyclic thiadiazolopyrimidine compounds were examined toward various cancer cell lines, such as liver and breast cancer (MCF-7), prostate cancer (PC3), laryngeal carcinoma (Hep-2), carcinoma (HepG2), and standard normal fibroblast cells (WI38) using the MTT assay[33] at the National Research Centre (Egypt). The cytotoxicity (Table 3) toward 50% inhibition of the cell viability (IC50 values) was assessed using 5-fluorouracil (5-Fu) as the standard anticancer drug.
(§2) The synthesized compounds were subjected to the MTT cytotoxicity assay on the basis of the cited literature.
(§3) MTT cytotoxicity assay: The technical method of MTT assay depends on the reduction of yellow 3-(4,5-methyl-2-thiazolyl)-2,5-diphenyl-2H-tetrazolium bromide (MTT) into purple formazan product, mainly by mitochondrial reductase activity inside the living cells. The cells used in cytotoxicity assay were cultured in RPMI 1640 medium supplemented with 10% fetal calf serum. Cells suspended in the medium (2×10^4 cells/mL) were plated in 96-well culture plates and incubated at 37 °C in a 5% CO2 incubator for 12 hours. The tested sample (2 μL) was added to the cells (2×10^4) in 96-well plates and cultured at 37 °C for 3 days. The cultured cells were mixed with 20 μL of MTT solution and incubated for 4 hours at 37 °C. The supernatant was carefully removed from each well, the formazan crystals were dissolved after addition of DMSO (100 μL) for each well to form the cellular reduction of MTT. After mixing with a mechanical plate mixer, the absorbance of each well was measured by a microplate reader using a test wavelength of 570 nm. The results were expressed as the IC50 values, which inducing 50% inhibition of cell growth of the treated cells when compared to the growth of control cells.

PC3 = assay: MTT cytotoxicity assay; assay type: cell-based; settings: Homo sapiens, PC-3, 72 h, 3 days
Experimental: as §1, §2, §3

Hep-2 = assay: MTT cytotoxicity assay; assay type: cell-based; settings: Homo sapiens, HEp-2, 72 h, 3 days
Experimental: as §1, §2, §3

MCF-7 = assay: MTT cytotoxicity assay; assay type: cell-based; settings: Homo sapiens, MCF7, 72 h, 3 days
Experimental: as §1, §2, §3

HepG2 = assay: MTT cytotoxicity assay; assay type: cell-based; settings: Homo sapiens, HepG2, 72 h, 3 days
Experimental: as §1, §2, §3

[2] = tested on: Aspergillus fumigatus 293; assay: Antifungal MIC, two-fold serial dilution; assay type: cell-based; settings: Fungi, glucose minimal medium, 30°C, 48 h, visual (no turbidity)
Experimental: (§4) The antimicrobial activity of the synthesized thiadiazolopyrimidine compounds was studied toward diverse pathogenic strains, such as gram-positive bacteria (Staphylococcus aureus ATCC 29213 and Bacillus cereus UW85), gram-negative bacteria (Escherichia coli ATCC 12435 and Pseudomonas aeruginosa ATCC 29260), and fungi (Candida albicans and Aspergillus fumigatus 293). The assessment was performed through the two-fold dilution technique using Ampicillin (antibacterial) and Fluconazole (antifungal) as the reference drugs[28],[29]. The minimal inhibitory concentration (MICs, µg/mL) of the synthesized derivatives for prohibiting microbial growth was determined through the visual detection (no turbidity) technique.
(§5) The synthesized thiadiazolopyrimidine-based compounds were evaluated and adopted for antibacterial and antifungal effectiveness using the approved procedure[38],[39].
(§6) Minimal inhibitory concentrations (MICs) were determined by serial dilution technique using 96-multiwell microtiter plates. The investigated compounds were dissolved in DMSO 100% to prepare stock solutions of 5000 µg/mL. Two-fold serial dilutions of the dissolved compounds were performed in glucose minimal medium providing eight different concentrations (1250, 625, 312.5, 156, 78, 39, 19.5 µg/mL). The microorganisms were diluted to 1 ×10^3 SFU/mL in glucose minimal medium, and 20 µL of the diluted culture was added to the test solutions (50 µL) in the wells (one well per concentration). The plates were incubated at 30°C for 48 h. MIC was detected visually as the least concentration inhibiting fungal growth (no turbidity) and the activity of the tested compounds was estimated in comparison to fluconazole.

Candida albicans = assay: Antifungal MIC, two-fold serial dilution; assay type: cell-based; settings: Fungi, glucose minimal medium, 30°C, 48 h, visual (no turbidity)
Experimental: as §4, §5, §6

[3] = tested on: Escherichia coli ATCC 12435; assay: Antibacterial MIC, two-fold serial dilution; assay type: cell-based; settings: ATCC12435, Gram −ve bacteria, LB broth, 37°C, 24 h, visual (no turbidity)
Experimental: as §4, §5
(§7) Minimal inhibitory concentrations (MICs) were determined by serial dilution technique using 96-multiwell microtiter plates. The investigated compounds were dissolved in DMSO 100% to prepare stock solutions of 5000 µg/mL. Two-fold serial dilutions of the dissolved compounds were performed in LB broth providing eight different concentrations (1250, 625, 312.5, 156, 78, 39, 19.5 µg/mL). Overnight cultures of microorganisms were diluted to 1 ×10^6 CFU/mL in LB broth, and 20 mL of the diluted cultures were added to the test solutions (50 mL) in the wells (one well per concentration per bacterial strain). The plates were incubated at 37°C for 24 h. MIC was detected visually as the least concentration inhibiting bacterial growth (no turbidity) and the activity of the tested compounds was estimated in comparison to ampicillin.

Bacillus cereus UW85 = assay: Antibacterial MIC, two-fold serial dilution; assay type: cell-based; settings: Gram +ve bacteria, LB broth, 37°C, 24 h, visual (no turbidity), read-out: MIC B. cereus
Experimental: as §4, §5, §7

[4] = tested on: Pseudomonas aeruginosa ATCC 29260; assay: Antibacterial MIC, two-fold serial dilution; assay type: cell-based; settings: ATCC29260, Gram −ve bacteria, LB broth, 37°C, 24 h, visual (no turbidity), read-out: MIC P. aeruginosa
Experimental: as §4, §5, §7

[5] = tested on: Staphylococcus aureus ATCC 29213; assay: Antibacterial MIC, two-fold serial dilution; assay type: cell-based; settings: ATCC29213, Gram +ve bacteria, LB broth, 37°C, 24 h, visual (no turbidity), read-out: MIC S. aureus
Experimental: as §4, §5, §7

[6] = tested on: Chromobacterium violaceum (ATCC 12472); assay: Antiquorum-sensing assay (violacein pigment inhibition); assay type: cell-based; settings: 5 mg/mL, 50 µL per well, 30°C, 48 h; QS inhibition = r2 − r1
Description: The synthesized thiadiazolopyrimidine-based compounds were screened for their antiquorum-sensing (anti-QS) inhibition activity by the Chromobacterium violaceum (ATCC 12472) technique using catechin as the standard compound[28]–[30]. The QS technique of C. violaceum was remarked by the detection of violacein (violet pigment)[31],[32]. Meanwhile, the reactivity of the synthesized thiadiazolopyrimidine-containing derivatives as drugs depends on their efficiency to inhibit the liberation of violacein during the QS technique. The QS inhibition was determined by the following equation: QS inhibition (mm) = (r2 − r1), where r1 is the inhibition radius of the bacterial growth and r2 is the inhibition radius for growth as well as the release of the pigment.
The anti-QS inefficiency was evaluated using the previous technique mentioned in the literature.
The culture was prepared by growing Ch. violaceum ATCC 12472 in LB broth and incubated for 16–18 h in an orbital incubator running at 28°C and 150 rpm. The culture was then adjusted to 0.5 McFarland standard (ca. 1 × 10^6 CFU/mL). Ch. violaceum (50 µL) was inoculated into LB agar (50 mL), poured into plates, and solidified. Wells were made in LB agar medium using cork borer. The tested compounds were dissolved in DMSO 100% in Eppendorf tubes for final concentration of 5 mg/mL, and 50 µL of the test solution was applied into the wells. The positive control (catechin) was also added at the same concentration and volume to each plate. In addition, DMSO (control solvent) was added to each plate. […] Bacterial growth inhibition by the tested compounds was measured as radius (r1) in mm, while both growth and pigment inhibition was measured as radius (r2) in mm. The pigment inhibition (QS inhibition) was determined by subtracting bacterial growth inhibition (r1) from the total radius (r2); thus, QS inhibition = (r2 - r1) in mm.

O=C1O[C@H]([C@@H](O)CO)C(O)=C1O [Ascorbic acid, L-Ascorbic acid, reference compound]
Absorbance (bleomycin-dependent DNA damage) (DNA): 0.060 ± 0.02

O=c1[nH]cc(F)c(=O)[nH]1 [Compound 5-Fu, 5-Fluorouracil, reference compound]
IC50 at 3 days [1]: 10.3 ± 0.62 µM | IC50 (PC3): 8.78 ± 0.6 µM | IC50 (Hep-2): 5.35 ± 0.23 µM | IC50 (MCF-7): 5.58 ± 0.31 µM | IC50 (HepG2): 7.2 ± 0.45 µM

OC(Cn1cncn1)(Cn1cncn1)c1ccc(F)cc1F [Fluconazole, reference compound]
MIC [2]: > 1250 µg/mL | MIC (Candida albicans): > 1250 µg/mL

CC1(C)S[C@@H]2[C@H](NC(=O)[C@H](N)c3ccccc3)C(=O)N2[C@H]1C(=O)O [Ampicillin, reference compound]
MIC [3]: 19.5 µg/mL (≈ 0.0558 mM) | MIC (Bacillus cereus UW85): 1250 µg/mL (≈ 3.58 mM) | MIC [4]: 78 µg/mL (≈ 0.223 mM) | MIC [5]: > 1250 µg/mL

O.Oc1cc(O)c2c(c1)O[C@H](c1ccc(O)c(O)c1)[C@@H](O)C2 [Catechin, catechin, reference compound]
Diameter of quorum-sensing inhibition C. violaceum [6]: 2 mm
